Assay results published in ChEMBL document CHEMBL1133593 (J Med Chem, 2000).

The compounds below were run against Phosphoglycerate kinase (Trypanosoma brucei) (assay: evaluated for the inhibition of Trypanosoma brucei Phosphoglycerate kinase (PGK)).
`Nc1nc(NCCc2ccc(Cl)cc2Cl)nc2c1ncn2C1O[C@H](CO)[C@@H](O)[C@H]1O` (stereo partly specified) showed an IC50 of 600 µM. Compound `Nc1nc(NCc2ccccc2)c2ncn(C3O[C@H](CO)[C@@H](O)[C@H]3O)c2n1` (stereo partly specified) has an IC50 of 600 µM. For `Nc1nc(NCCCc2ccccc2)c2ncn(C3O[C@H](CO)[C@@H](O)[C@H]3O)c2n1` (stereo partly specified), the IC50 was 4000 µM. For `Cc1cccc(CNc2nc(N)c3ncn(C4O[C@H](CO)[C@@H](O)[C@H]4O)c3n2)c1` (stereo partly specified), the IC50 was 1500 µM. In the case of `COc1ccc(CCNc2nc(N)nc3c2ncn3C2O[C@H](CO)[C@@H](O)[C@H]2O)cc1O` (stereo partly specified), the IC50 is reported as 850 µM. `Nc1nc(NCCc2ccc(O)c(O)c2)c2ncn(C3O[C@H](CO)[C@@H](O)[C@H]3O)c2n1` (stereo partly specified) gave an IC50 of 250 µM. `OC[C@H]1OC(n2cnc3c(NCCc4ccc(O)cc4)nc(NCCc4ccccc4)nc32)[C@H](O)[C@@H]1O` (stereo partly specified) gave an IC50 of 100 µM. `Nc1nc(NCc2cccc3ccccc23)c2ncn(C3O[C@H](CO)[C@@H](O)[C@H]3O)c2n1` (stereo partly specified) was tested, and the IC50 was 1900 µM. `Nc1nc(NCc2ccco2)c2ncn(C3O[C@H](CO)[C@@H](O)[C@H]3O)c2n1` (stereo partly specified) gave an IC50 of 1500 µM. `COc1ccc(CCNc2nc(N)nc3c2ncn3C2O[C@H](CO)[C@@H](O)[C@H]2O)cc1` (stereo partly specified) showed an IC50 of 1500 µM. `Nc1nc(NCCCCNc2nc(N)nc3c2ncn3C2O[C@H](CO)[C@@H](O)[C@H]2O)c2ncn(C3O[C@@H](CO)[C@H](O)[C@@H]3O)c2n1` (stereo partly specified) was tested, and the IC50 was 750 µM. `Nc1nc(NCCc2cccc(O)c2)c2ncn(C3O[C@H](CO)[C@@H](O)[C@H]3O)c2n1` (stereo partly specified) was tested, and the IC50 was 250 µM. Work on `CC(CNc1nc(N)c2ncn(C3O[C@H](CO)[C@@H](O)[C@H]3O)c2n1)c1ccccc1` (stereo partly specified) yielded an IC50 of 3500 µM. `Nc1nc(NC2CCCCCC2)c2ncn(C3O[C@H](CO)[C@@H](O)[C@H]3O)c2n1` (stereo partly specified) gave an IC50 of 2500 µM. Work on `Cc1cccc(CNc2nc(N)nc3c2ncn3C2O[C@H](CO)[C@@H](O)[C@H]2O)c1` (stereo partly specified) yielded an IC50 of 400 µM. `Nc1nc(NCC2CCCCC2)c2ncn(C3O[C@H](CO)[C@@H](O)[C@H]3O)c2n1` (stereo partly specified) gave an IC50 of 2500 µM. With `Nc1nc(NCCc2ccccc2)c2ncn(C3O[C@H](CO)[C@@H](O)[C@H]3O)c2n1` (stereo partly specified) the IC50 was 200 µM. For `Nc1nc(NCC2CCCO2)nc2c1ncn2C1O[C@H](CO)[C@@H](O)[C@H]1O` (stereo partly specified), the IC50 was 800 µM. Compound `Nc1nc(NCC(O)c2ccccc2)nc2c1ncn2[C@@H]1O[C@H](CO)[C@@H](O)[C@H]1O` (stereo partly specified) has an IC50 of 1400 µM. For `CCCCCNc1nc(N)nc2c1ncn2C1O[C@H](CO)[C@@H](O)[C@H]1O` (stereo partly specified), the IC50 was 2000 µM. Work on `Nc1nc(NCCc2ccccc2Cl)nc2c1ncn2C1O[C@H](CO)[C@@H](O)[C@H]1O` (stereo partly specified) yielded an IC50 of 2200 µM. Work on `Nc1nc(NC2CCCC2)c2ncn(C3O[C@H](CO)[C@@H](O)[C@H]3O)c2n1` (stereo partly specified) yielded an IC50 of 1500 µM. Work on `Nc1nc(NCCc2cccc(Cl)c2)c2ncn(C3O[C@H](CO)[C@@H](O)[C@H]3O)c2n1` (stereo partly specified) yielded an IC50 of 1200 µM. Work on `C=CCNc1nc(N)nc2c1ncn2C1O[C@H](CO)[C@@H](O)[C@H]1O` (stereo partly specified) yielded an IC50 of 3000 µM. Compound `Nc1nc(NCCc2ccccc2Cl)c2ncn(C3O[C@H](CO)[C@@H](O)[C@H]3O)c2n1` (stereo partly specified) has an IC50 of 1900 µM. `Nc1nc(NCCc2ccc(Cl)cc2)c2ncn(C3O[C@H](CO)[C@@H](O)[C@H]3O)c2n1` (stereo partly specified) showed an IC50 of 1400 µM. Work on `COc1ccccc1CCNc1nc(N)nc2c1ncn2C1O[C@H](CO)[C@@H](O)[C@H]1O` (stereo partly specified) yielded an IC50 of 1800 µM. In the case of `C#CCNc1nc(N)nc2c1ncn2C1O[C@H](CO)[C@@H](O)[C@H]1O` (stereo partly specified), the IC50 is reported as 1500 µM. Work on `Nc1nc(NCc2cccc(Cl)c2)nc2c1ncn2C1O[C@H](CO)[C@@H](O)[C@H]1O` (stereo partly specified) yielded an IC50 of 800 µM. For `Cc1ccccc1CNc1nc(N)c2ncn(C3O[C@H](CO)[C@@H](O)[C@H]3O)c2n1` (stereo partly specified), the IC50 was 1500 µM. For `CCNc1nc(N)nc2c1ncn2C1O[C@H](CO)[C@@H](O)[C@H]1O` (stereo partly specified), the IC50 was 3500 µM. `Nc1nc(NCc2ccccc2Cl)nc2c1ncn2C1O[C@H](CO)[C@@H](O)[C@H]1O` (stereo partly specified) showed an IC50 of 2000 µM. In the case of `Nc1nc(NCCCCCNc2nc(N)nc3c2ncn3C2O[C@H](CO)[C@@H](O)[C@H]2O)c2ncn(C3O[C@@H](CO)[C@H](O)[C@@H]3O)c2n1` (stereo partly specified), the IC50 is reported as 1000 µM. Compound `OC[C@H]1OC(n2cnc3c(NCCc4ccccc4)nc(NCCc4ccc(O)cc4)nc32)[C@H](O)[C@@H]1O` (stereo partly specified) has an IC50 of 100 µM. Compound `CCCNc1nc(N)nc2c1ncn2C1O[C@H](CO)[C@@H](O)[C@H]1O` (stereo partly specified) has an IC50 of 3000 µM. For `Nc1nc(NCCc2ccc(O)cc2)c2ncn(C3O[C@H](CO)[C@@H](O)[C@H]3O)c2n1` (stereo partly specified), the IC50 was 130 µM. Work on `CC(Nc1nc(N)nc2c1ncn2C1O[C@H](CO)[C@@H](O)[C@H]1O)c1ccccc1` (stereo partly specified) yielded an IC50 of 2900 µM. `Nc1nc(NCc2ccco2)nc2c1ncn2C1O[C@H](CO)[C@@H](O)[C@H]1O` (stereo partly specified) gave an IC50 of 1200 µM. With `Nc1nc(NCCNc2nc(N)nc3c2ncn3C2O[C@H](CO)[C@@H](O)[C@H]2O)c2ncn(C3O[C@@H](CO)[C@H](O)[C@@H]3O)c2n1` (stereo partly specified) the IC50 was 500 µM. `Nc1nc(NCCCNc2nc(N)nc3c2ncn3C2O[C@H](CO)[C@@H](O)[C@H]2O)c2ncn(C3O[C@@H](CO)[C@H](O)[C@@H]3O)c2n1` (stereo partly specified) was tested, and the IC50 was 50 µM. `Cc1ccc(CNc2nc(N)c3ncn(C4O[C@H](CO)[C@@H](O)[C@H]4O)c3n2)cc1` (stereo partly specified) was tested, and the IC50 was 1500 µM. Work on `NCCNc1ncnc2c1ncn2C1O[C@H](CO)[C@@H](O)[C@H]1O` (stereo partly specified) yielded an IC50 of 2500 µM. Work on `COc1ccccc1CNc1nc(N)c2ncn(C3O[C@H](CO)[C@@H](O)[C@H]3O)c2n1` (stereo partly specified) yielded an IC50 of 1400 µM. With `Nc1nc(NCc2ccc(Cl)cc2)nc2c1ncn2C1O[C@H](CO)[C@@H](O)[C@H]1O` (stereo partly specified) the IC50 was 1400 µM. With `COc1cccc(CCNc2nc(N)nc3c2ncn3C2O[C@H](CO)[C@@H](O)[C@H]2O)c1` (stereo partly specified) the IC50 was 1900 µM. In the case of `COc1ccc(CNc2nc(N)c3ncn(C4O[C@H](CO)[C@@H](O)[C@H]4O)c3n2)cc1` (stereo partly specified), the IC50 is reported as 1000 µM. For `Nc1nc(NCCc2ccc(O)cc2)nc2c1ncn2C1O[C@H](CO)[C@@H](O)[C@H]1O` (stereo partly specified), the IC50 was 500 µM. Work on `Nc1nc(NCCCc2ccccc2)nc2c1ncn2C1O[C@H](CO)[C@@H](O)[C@H]1O` (stereo partly specified) yielded an IC50 of 1800 µM. In the case of `CCCCNc1nc(N)c2ncn(C3O[C@H](CO)[C@@H](O)[C@H]3O)c2n1` (stereo partly specified), the IC50 is reported as 1500 µM. `Cc1ccc(CCNc2nc(N)nc3c2ncn3C2O[C@H](CO)[C@@H](O)[C@H]2O)cc1` (stereo partly specified) gave an IC50 of 2000 µM. `OC[C@H]1OC(n2cnc3c(NCCc4ccccc4)nc(NCCc4ccccc4)nc32)[C@H](O)[C@@H]1O` (stereo partly specified) was tested, and the IC50 was 30 µM. Work on `Nc1nc(NCc2ccccc2)nc2c1ncn2C1O[C@H](CO)[C@@H](O)[C@H]1O` (stereo partly specified) yielded an IC50 of 3500 µM. In the case of `Nc1ccc(CCNc2nc(N)c3ncn(C4O[C@H](CO)[C@@H](O)[C@H]4O)c3n2)cc1` (stereo partly specified), the IC50 is reported as 500 µM. `Nc1nc(NC2CCCCCC2)nc2c1ncn2C1O[C@H](CO)[C@@H](O)[C@H]1O` (stereo partly specified) was tested, and the IC50 was 3000 µM. For `CCCCCNc1ncnc2c1ncn2[C@@H]1O[C@H](CO)[C@@H](O)[C@H]1O`, the IC50 was 3000 µM. Compound `COc1cc(CCNc2nc(N)nc3c2ncn3C2O[C@H](CO)[C@@H](O)[C@H]2O)ccc1O` (stereo partly specified) has an IC50 of 1500 µM. In the case of `CCCCNc1nc(N)nc2c1ncn2C1O[C@H](CO)[C@@H](O)[C@H]1O` (stereo partly specified), the IC50 is reported as 900 µM. `Nc1ccc(CCNc2nc(N)nc3c2ncn3C2O[C@H](CO)[C@@H](O)[C@H]2O)cc1` (stereo partly specified) showed an IC50 of 250 µM. `CCCNc1nc(N)c2ncn([C@@H]3O[C@H](CO)[C@@H](O)[C@H]3O)c2n1` gave an IC50 of 1500 µM. Work on `NCCCNc1nc(N)nc2c1ncn2C1O[C@H](CO)[C@@H](O)[C@H]1O` (stereo partly specified) yielded an IC50 of 4000 µM. With `CC(CNc1nc(N)nc2c1ncn2C1O[C@H](CO)[C@@H](O)[C@H]1O)c1ccccc1` (stereo partly specified) the IC50 was 2900 µM.
